Laboratory results: patent publication US9198909B1, “Materials and methods for inhibiting mamalian S-nitrosoglutathione reductase” (Indiana University Research and Technology Corporation, priority 2007, dated 2015)

Columns and labels:
GSNOR•NADH complex = target: T1, GSNOR•NADH complex (Homo sapiens, UniProt P11766); test: Fluorescence equilibrium binding to GSNOR•NADH complex; settings: 1.7 μM NADH, 2 μM GSNOR, 50 μM compound 8
T1 construct: made in house; host or cells: E. coli
Description: Referring now to FIG. 2, (A) Changes in the fluorescence of NADH (curve a) upon sequential addition of GSNOR (curve b) and compound 8 (curve c). To a solution of 1.7 μM NADH were added 2 μM GSNOR and 50 μM compound 8 in sequence and the fluorescence of the solution measured each time (λexc=350 nm; λemm=375-550 nm); (B) Changes in the fluorescence of NADH (curve a) upon sequential addition of GSNOR (curve b), 12-HDDA (curve c) and compound 8 (curve d). To a solution of 1.7 μM NADH were added 2 μM GSNOR, 810 μM 12-HDDA and 50 μM compound 8 in sequence and the fluorescence measured each time (λexc=350 nm; λemm=375-550 nm); (C) Binding of compound 8 to GSNOR•NADH complex. The change in fluorescence of a 1.7 μM NADH and 2 μM GSNOR mixture (λexc=350 nm; λemm=455 nm) with increasing concentrations of compound 8 was fitted to a single site binding model (equation 1; see materials and methods) using the Graphpad Prizm 4. All of the fluorescence studies were conducted at room temperature in 50 mM potassium phosphate pH 7.5.
Referring now to Table 3, inhibition experiments were performed at 25° C. in 50 mM potassium phosphate (pH 7.5) including 0.1 mM EDTA. […] The dissociation constant was measured at 25° C. in 50 mM potassium phosphate pH 7.5. […]
Fluorescence studies were conducted in 50 mM potassium phosphate pH 7.5, at room temperature using a Fluoromax-2 fluorescence spectrometer (Instruments S.A., Inc., Edison, N.J.). The equilibrium dissociation constant of GSNOR inhibitors was determined by measuring the changes in the fluorescence of GSNOR bound NADH (λexc=350 nm; λemm=455 nm) upon the addition of inhibitor. […] The decrease in fluorescence at 455 nm with each addition of inhibitor was plotted against the final concentration of inhibitor and the data were fitted to equation 1 using nonlinear regression to obtain the dissociation constant of the inhibitor for GSNOR-NADH complex,
[formula] In equation 1, ΔF is the change in the fluorescence at 455 nm upon the addition of inhibitor. ΔFM is the maximum fluorescence change that was obtained from curve fitting. […]

GSNOR [1] = target: T2, GSNOR (Homo sapiens, UniProt P11766); test: GSNOR inhibition at pH 10 (octanol, NAD+); type: biochemical; design: made in house; host or cells: E. coli; settings: pH 10 versus pH 7.5
T2 sequence (P11766 2-374 limits assumed): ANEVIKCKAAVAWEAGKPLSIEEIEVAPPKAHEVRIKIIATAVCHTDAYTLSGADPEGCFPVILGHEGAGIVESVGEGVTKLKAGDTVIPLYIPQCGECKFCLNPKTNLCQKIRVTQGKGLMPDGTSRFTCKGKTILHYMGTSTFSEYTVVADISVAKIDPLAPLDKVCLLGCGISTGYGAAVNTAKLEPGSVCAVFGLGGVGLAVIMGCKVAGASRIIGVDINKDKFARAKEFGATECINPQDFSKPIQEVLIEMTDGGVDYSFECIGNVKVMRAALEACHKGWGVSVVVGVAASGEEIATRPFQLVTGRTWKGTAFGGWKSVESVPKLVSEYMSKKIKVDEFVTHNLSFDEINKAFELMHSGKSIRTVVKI
Description: Referring now to Table 1, inhibition was studied at pH 10. These assays were performed in 0.1 M sodium glycine containing 1 mM octanol, 1 mM NAD^+, 0.1 mM EDTA and 50 μM inhibitor. Inhibition studies at pH 7.5 were performed in 50 mM potassium phosphate pH 7.5 that included 15 μM NADH, 10 μM GSNO, 0.1 mM EDTA and 50 μM inhibitor. The data file to a model consisted with partial inhibition and a hill coefficient of 2.4 in the inhibition curve. The screening for GSNOR inhibitors was performed using a library of 60,000 compounds from ChemDiv Inc in the Chemical Genomics Core facility at Indiana University. Screening was conducted in 384 well plates and involved incubating GSNOR with 12.5 μM compound, 1 mM each of NAD^+ and octanol in 0.1 M sodium glycine pH 10. Enzyme activity was determined by measuring the rate of production of NADH spectrophotometrically at 340 nm. Inhibition of GSNOR was calculated from the ratio of enzyme activity in the presence of compounds to that in no compound controls performed on the same assay plate. Following their identification from the high-throughput screening, the GSNOR inhibitory properties of the initial hits were confirmed at the pH 10 using 12-hydroxydodecanoic acid as the substrate and at pH 7.5 using GSNO as the substrate (see the brief description of Table 1 for details on how the assay was carried out.)

GSNOR [2] = target: T2, GSNOR; test: Dead-end inhibition studies of GSNOR; type: biochemical; design: made in house; host or cells: E. coli; settings: pH 7.5, 25° C., GSNO held at 10 μM
Description: Referring now to Table 3, inhibition experiments were performed at 25° C. in 50 mM potassium phosphate (pH 7.5) including 0.1 mM EDTA. A minimum of five concentrations of the varied substrate and three inhibitor concentrations were used for each experiment. NADH and GSNO concentrations were held at 15 or 10 μM, respectively when present as a constant substrate in the assay. The Kis and Kii values are respectively the slope and intercept inhibition constants and are listed along with their associated standard errors. All data were fit to a competitive (C), noncompetitive (NC), or uncompetitive (UC) inhibition models. The type of inhibition shown in the table represents the best fit of the data to the given model as judged from F statistics analysis. […] The dissociation constant was measured at 25° C. in 50 mM potassium phosphate pH 7.5. Each KD value is an average of three independent experiments and is shown with the associated standard error.
Inhibition experiments with the GSNOR inhibitors were conducted at 25° C. in 3 ml of 50 mM potassium phosphate (pH 7.5) containing 0.1 mM EDTA. […] A minimum of three inhibitor concentrations were used in these assays and the rate of NADH and GSNO consumption was determined spectrophotometrically by following change in absorbance at 340 nm. […]

RAW 264.7 cells = test: cGMP accumulation in RAW 264.7 cells; type: cell-based, rat; settings: 50 μM GSNO, 10 minutes
Description: cGMP plays key roles in vascular biology. To test whether inhibition of GSNOR increases cGMP production, RAW 264.7 cells were incubated with 50 μM GSNO±, both with and without compound 8, one of the subject GSNOR inhibitors of this invention. Next the amount of cGMP accumulation after 10 minutes was measured. Referring now to FIG. 6, GSNO activates soluble Guanylate Cyclase as previously described (Mayer et al J Biol Chem, Vol. 273, Issue 6, 3264-3270, Feb. 6, 1998). Compound 8 (GSNORi in the figure) potentiates the effect of GSNO by 2.5 fold.
Referring now to FIG. 6, RAW 264.7 cells were incubated with 50 μM GSNO±compound 8 the subject GSNOR inhibitor of this invention and then measured the amount of cGMP accumulation after 10 minutes. As shown in the figure GSNO activates soluble Guanylate Cyclase as previously described (Mayer et al J Biol Chem, Vol. 273, Issue 6, 3264-3270, Feb. 6, 1998). One mechanism by which compound 8 exerts its biochemical effects is due to its inhibition of GSNOR, which then potentiates the effects of GSNO on cGMP production resulting in higher cGMP levels.

T1 sequence (P11766 2-374 limits assumed, one chain of several): as the sequence (P11766 2-374 limits assumed) above

- type of inhibition against varied NADH (GSNOR [2]): uncompetitive
SMILES: N#Cc1ccccc1CSc1nc2ccsc2c(=O)n1Cc1ccc(C(=O)O)cc1 [Compound 8]
- effect on fluorescence of GSNOR bound NADH (GSNOR•NADH complex): decreased the fluorescence of NADH
- effect on GSNOR•NADH•12-HDDA complex (displacement of 12-HDDA) (GSNOR•NADH complex; 810 μM 12-HDDA): displaced 12-HDDA from the active site
- GSNOR inhibition at pH 10 compared with pH 7.5 (GSNOR [1]): higher GSNOR inhibition at pH 10 than at pH 7.5
- potentiation of the effect of GSNO on cGMP (RAW 264.7 cells): 2.5 fold
